Here are results for 20 compounds from patent US6458781B1, “Substituted diarylalkyl amides as calcium channel antagonists” (priority 1998, dated 2002).

pIC50: −log10 of the molar value. Read-outs that look alike come from different tables or passages of the source. Where only a bound is given, the exact number is not on record here.

The target in series [1] is T1, N-type calcium channels in IMR-32 cells (Homo sapiens, UniProt Q00975).
T1 construct: host or cells: IMR-32 cells differentiated with dibutyryl cAMP and bromodeoxyuridine
T1 sequence (Q00975 whole entry): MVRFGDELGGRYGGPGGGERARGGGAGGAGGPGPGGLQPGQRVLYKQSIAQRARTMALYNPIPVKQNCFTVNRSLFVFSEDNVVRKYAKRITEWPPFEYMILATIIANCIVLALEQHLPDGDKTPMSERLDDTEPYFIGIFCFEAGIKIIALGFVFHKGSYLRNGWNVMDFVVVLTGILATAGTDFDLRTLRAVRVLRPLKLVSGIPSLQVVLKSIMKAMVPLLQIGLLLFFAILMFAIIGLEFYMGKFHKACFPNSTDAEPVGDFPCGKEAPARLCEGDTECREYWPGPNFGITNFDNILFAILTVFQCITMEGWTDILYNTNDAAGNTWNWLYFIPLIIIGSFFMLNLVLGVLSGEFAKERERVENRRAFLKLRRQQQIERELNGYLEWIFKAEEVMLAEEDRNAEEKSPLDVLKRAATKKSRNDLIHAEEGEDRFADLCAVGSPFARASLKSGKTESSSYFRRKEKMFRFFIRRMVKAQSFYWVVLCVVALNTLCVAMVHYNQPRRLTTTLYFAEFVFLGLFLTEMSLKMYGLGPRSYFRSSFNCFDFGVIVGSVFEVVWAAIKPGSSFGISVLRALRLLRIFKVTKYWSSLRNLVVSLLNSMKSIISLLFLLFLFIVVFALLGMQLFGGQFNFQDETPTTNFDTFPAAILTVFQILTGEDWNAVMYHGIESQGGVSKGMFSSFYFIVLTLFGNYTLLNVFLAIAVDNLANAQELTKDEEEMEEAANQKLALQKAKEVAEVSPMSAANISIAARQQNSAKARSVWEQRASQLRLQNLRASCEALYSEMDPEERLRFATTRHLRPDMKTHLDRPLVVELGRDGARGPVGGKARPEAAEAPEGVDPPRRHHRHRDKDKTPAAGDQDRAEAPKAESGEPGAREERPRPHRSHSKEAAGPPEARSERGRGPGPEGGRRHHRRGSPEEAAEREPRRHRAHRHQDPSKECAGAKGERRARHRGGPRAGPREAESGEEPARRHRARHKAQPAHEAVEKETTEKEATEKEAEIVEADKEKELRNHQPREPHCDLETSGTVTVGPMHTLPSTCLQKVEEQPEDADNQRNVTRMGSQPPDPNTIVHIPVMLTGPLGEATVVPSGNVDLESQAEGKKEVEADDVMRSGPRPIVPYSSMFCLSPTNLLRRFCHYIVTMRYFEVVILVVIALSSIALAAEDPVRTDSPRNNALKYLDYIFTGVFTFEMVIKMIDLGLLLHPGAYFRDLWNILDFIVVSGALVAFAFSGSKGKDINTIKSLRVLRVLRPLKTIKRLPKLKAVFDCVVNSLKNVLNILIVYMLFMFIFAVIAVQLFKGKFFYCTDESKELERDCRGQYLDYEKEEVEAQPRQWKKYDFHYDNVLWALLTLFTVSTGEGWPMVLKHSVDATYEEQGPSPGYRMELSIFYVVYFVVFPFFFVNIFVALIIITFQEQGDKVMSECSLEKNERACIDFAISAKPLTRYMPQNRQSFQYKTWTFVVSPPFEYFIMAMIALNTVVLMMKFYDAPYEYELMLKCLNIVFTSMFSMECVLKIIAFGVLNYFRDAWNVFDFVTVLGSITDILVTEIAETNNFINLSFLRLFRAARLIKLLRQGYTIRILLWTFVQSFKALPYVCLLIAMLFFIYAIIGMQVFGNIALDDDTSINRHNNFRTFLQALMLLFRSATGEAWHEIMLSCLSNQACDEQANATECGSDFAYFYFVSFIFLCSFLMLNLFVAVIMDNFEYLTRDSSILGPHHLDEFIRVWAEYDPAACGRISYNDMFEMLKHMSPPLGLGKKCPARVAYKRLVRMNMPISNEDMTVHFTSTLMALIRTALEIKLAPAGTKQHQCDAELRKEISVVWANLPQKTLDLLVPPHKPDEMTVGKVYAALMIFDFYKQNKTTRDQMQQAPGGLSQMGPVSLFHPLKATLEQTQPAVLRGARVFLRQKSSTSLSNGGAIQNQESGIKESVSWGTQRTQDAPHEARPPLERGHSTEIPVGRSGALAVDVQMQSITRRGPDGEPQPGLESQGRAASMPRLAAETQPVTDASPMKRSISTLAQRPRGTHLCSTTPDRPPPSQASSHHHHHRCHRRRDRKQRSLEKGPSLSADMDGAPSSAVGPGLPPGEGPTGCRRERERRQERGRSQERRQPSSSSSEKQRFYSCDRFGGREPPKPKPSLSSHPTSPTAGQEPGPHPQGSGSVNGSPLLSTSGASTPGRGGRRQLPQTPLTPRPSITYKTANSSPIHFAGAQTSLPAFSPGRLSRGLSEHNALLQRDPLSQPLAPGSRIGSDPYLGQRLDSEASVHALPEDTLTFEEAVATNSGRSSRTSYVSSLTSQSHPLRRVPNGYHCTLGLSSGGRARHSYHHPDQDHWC
T1 sequence (P54289 25-956 partner limits assumed): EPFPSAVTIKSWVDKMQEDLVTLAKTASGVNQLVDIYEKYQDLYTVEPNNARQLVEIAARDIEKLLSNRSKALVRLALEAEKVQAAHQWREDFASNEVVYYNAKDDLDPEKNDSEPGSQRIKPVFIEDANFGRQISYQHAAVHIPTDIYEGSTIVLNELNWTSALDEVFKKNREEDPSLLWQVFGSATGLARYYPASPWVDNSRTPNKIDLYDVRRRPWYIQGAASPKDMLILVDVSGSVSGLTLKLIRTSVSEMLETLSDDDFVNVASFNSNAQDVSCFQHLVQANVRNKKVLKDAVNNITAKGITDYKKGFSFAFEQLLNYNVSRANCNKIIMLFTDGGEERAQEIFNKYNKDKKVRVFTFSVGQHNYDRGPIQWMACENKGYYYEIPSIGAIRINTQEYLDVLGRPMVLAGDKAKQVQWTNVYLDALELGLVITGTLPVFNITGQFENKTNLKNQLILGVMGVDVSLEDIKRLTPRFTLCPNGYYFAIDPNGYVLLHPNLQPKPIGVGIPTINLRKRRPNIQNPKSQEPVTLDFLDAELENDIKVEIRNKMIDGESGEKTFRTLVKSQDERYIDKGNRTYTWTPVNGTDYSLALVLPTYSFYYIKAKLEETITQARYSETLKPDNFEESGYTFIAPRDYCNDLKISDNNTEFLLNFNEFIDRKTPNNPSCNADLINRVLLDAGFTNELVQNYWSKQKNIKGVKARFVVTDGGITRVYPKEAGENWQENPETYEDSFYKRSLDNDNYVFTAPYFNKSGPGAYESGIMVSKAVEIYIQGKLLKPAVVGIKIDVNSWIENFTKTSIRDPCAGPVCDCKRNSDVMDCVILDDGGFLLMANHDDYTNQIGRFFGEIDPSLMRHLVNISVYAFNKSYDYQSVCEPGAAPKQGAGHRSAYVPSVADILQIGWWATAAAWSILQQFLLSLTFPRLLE
T1 sequence (P54289 957-1103 partner limits assumed): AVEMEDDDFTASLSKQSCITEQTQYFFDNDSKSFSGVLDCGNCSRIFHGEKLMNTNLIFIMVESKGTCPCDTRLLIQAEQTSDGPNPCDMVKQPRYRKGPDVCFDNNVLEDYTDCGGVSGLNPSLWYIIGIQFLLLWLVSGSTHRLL
T1 sequence (Q02641 whole entry partner): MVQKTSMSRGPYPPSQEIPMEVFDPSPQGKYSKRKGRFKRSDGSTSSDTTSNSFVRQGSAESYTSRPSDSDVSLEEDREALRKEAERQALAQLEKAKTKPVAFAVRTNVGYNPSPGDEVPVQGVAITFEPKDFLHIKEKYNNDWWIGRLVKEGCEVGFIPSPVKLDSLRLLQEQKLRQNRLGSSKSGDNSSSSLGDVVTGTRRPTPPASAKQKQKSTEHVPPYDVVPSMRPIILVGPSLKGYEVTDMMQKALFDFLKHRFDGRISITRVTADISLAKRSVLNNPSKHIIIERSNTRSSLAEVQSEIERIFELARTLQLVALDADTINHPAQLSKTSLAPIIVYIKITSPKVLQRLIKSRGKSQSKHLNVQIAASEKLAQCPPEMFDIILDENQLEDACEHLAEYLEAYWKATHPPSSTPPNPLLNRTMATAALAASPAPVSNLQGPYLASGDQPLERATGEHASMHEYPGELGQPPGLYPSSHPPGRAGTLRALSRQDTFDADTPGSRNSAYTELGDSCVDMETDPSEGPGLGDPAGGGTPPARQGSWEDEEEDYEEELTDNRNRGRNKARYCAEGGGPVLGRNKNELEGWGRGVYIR
Kind of series: N-type Ca2+ channel blocking potency in IMR-32 cells using Indo-1. The series is classed as cell-based. The settings on record: for pIC50: IMR-32 cells; for inhibition at 1 µM / inhibition at 10 µM: IMR-32, IMR-32 cells; for inhibition at 1 µM: read-out: IMR32 % blockage at 1 μM; for inhibition at 10 µM: read-out: IMR32 % blockage at 10 μM. The method, boiled down:
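Differentiated IMR-32 cells loaded with Indo-1 AM were preincubated with compound and 5 μM nitrendipine (L-type block) for 10 min at 30° C in HEPES/Tris pH 7.4 HBSS with 0.5% BSA. Cells were depolarized with KCl/CaCl2, and the 400/490 nm emission ratio rise over basal was measured. IC50 came from a four-parameter logistic fit.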

In series [2] the target is T2, L-type calcium channels in A10 cells (Rattus norvegicus, UniProt P22002).
T2 construct: which endogenously expresses L-type calcium channels; host or cells: A10 rat embryonic thoracic aorta smooth muscle cells
Kind of series: L-type Ca2+ channel blocking potency in A10 cells (FLIPR). The series is classed as cell-based. The settings on record: read-out: FLPA10 IC50. The method, boiled down:
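Rat A10 aortic smooth-muscle cells endogenously expressing L-type channels were loaded with Oregon Green BAPTA-1 and preincubated with compound for 5 min at 35 °C. Cells were then depolarized with 140 mM KCl buffer. Summed fluorescence above basal over 120 s gave % inhibition versus buffer-treated stimulated wells, with zero influx defined by 1.0×10^−6 M nitrendipine.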

Where [3] appears, read: estimated from two data points, read-out: IMR32 IC50 (estimated IC50 values based on two data points).

For `CC(C)[C@H](NC(=O)N1CCCCCC1)C(=O)NCCCC(c1ccc(F)cc1)c1ccc(F)cc1` [Example 26, (S)-Azepane-1-carboxylic acid {1-[4,4-bis-(4-fluoro-phenyl)-butylcarbamoyl]-2-methyl-propyl}-amide], the melting point was in the range of 32 to 50 °C. Further, the pIC50 in series [1] (setting [3]) is 6.08. For the same compound, the pIC50 in series [2] is 6.62.

`CC(C)C[C@H](NC(=O)N1CCN(C)CC1)C(=O)NCCCC(c1ccc(F)cc1)c1ccc(F)cc1` [Example 29, (S)-4-Methyl-piperazine-1-carboxylic acid {1-[4,4-bis-(4-fluoro-phenyl)-butylcarbamoyl]-3-methyl-butyl)-amide]: the melting point fell in the range of 73 to 91 °C. Moreover, in series [1], the inhibition at 1 µM is 22% and the inhibition at 10 µM came out at 82%. In series [2], the negative logarithm of the IC50 (pIC50) was 5.92.

The compound `C[C@H](NC(=O)N1CCCCCC1)C(=O)NCCCC(c1ccc(F)cc1)c1ccc(F)cc1` [Example 30, (S)-Azepane-1-carboxylic acid {1-[4,4-bis-(4-fluoro-phenyl)-butylcarbamoyl]-ethyl}-amide] had a melting point of 29 to 49 °C. Further, in series [1], the inhibition at 1 µM was determined as 39% and the inhibition at 10 µM came out at 100%. The pIC50 in series [2] was 5.89.

`O=C(CNC(=O)N1CCCCCC1)N1CCN(C(c2ccc(F)cc2)c2ccc(F)cc2)CC1` [Example 32, (S)-Azepane-1-carboxylic acid (2-{4-[bis-(4-fluoro-phenyl)-methyl]-piperazin-1-yl}-2-oxo-ethyl)-amide] showed a melting point of 66 to 86 °C. In addition, the pIC50 in series [1] (5 μM nitrendipine present, read-out: IMR32 IC50) was 6.33. The pIC50 in series [2] was 5.74.

`CC(C)C[C@@H](C(=O)N1CCN(C(c2ccc(F)cc2)c2ccc(F)cc2)CC1)N(C)C1CCOCC1` [Example 41, (S)-1-{4-[Bis-(4-fluoro-phenyl)-methyl]-piperazin-1-yl}-4-methyl-2-[methyl-(tetrahydro-pyran-4-yl)-amino]-pentan-1-one] returned a melting point of 56 to 65 °C. Moreover, the negative-log IC50 (pIC50) in series [1] (setting [3]) is 5.64. Further, the pIC50 in series [2] was 6.11.

The compound `CC(C)C[C@@H](C(=O)N1CCN(C(c2ccc(F)cc2)c2ccc(F)cc2)CC1)N1CCOCC1` [Example 42, (S)-1-{4-[Bis-(4-fluoro-phenyl)-methyl]-piperazin-1-yl}-4-methyl-2-morpholin-4-yl-pentan-1-one] showed a melting point of 55 to 63 °C. Further, the pIC50 in series [1] (setting [3]) is 5.47. The pIC50 in series [2] is 5.70.

On to `CCC(C)[C@H](NC(=O)N1CCCCCC1)C(=O)N1CCN(C(c2ccc(F)cc2)c2ccc(F)cc2)CC1` (stereo partly drawn) [Example 43, (S)-Azepane-1-carboxylic acid (1-{4-[bis-(4-fluoro-phenyl)-methyl]-piperazine-1-carbonyl}-2-methyl-butyl)-amide], for which the melting point is 64 to 77 °C. Moreover, the pIC50 in series [1] (setting [3]) is 6.33. In series [2], the pIC50 is 6.36.

`CC(C)C[C@H](NC(=O)N1CCN(c2ccccc2)CC1)C(=O)N1CCN(C(c2ccc(F)cc2)c2ccc(F)cc2)CC1` [Example 44, (S)-4-Phenyl-piperazine-1-carboxylic acid (1-{4-[bis-(4-fluoro-phenyl)-methyl]-piperazine-1-carbonyl}-3-methyl-butyl)-amide] came in with a melting point of 83 to 91 °C. For the same compound, in series [1] (setting [3]), the pIC50 was 6.39. For the same compound, in series [2], the pIC50 is 6.52.

`CC(C)C[C@H](NC(=O)N1CCCCCC1)C(=O)N1CCN(C2c3ccccc3-c3ccccc32)CC1` [Example 45, (S)-Azepane-1-carboxylic acid {1-[4-(9H-fluoren-9-yl)-piperazine-1-carbonyl]-3-methyl-butyl}-amide] gave a melting point of 63 to 73 °C. The pIC50 in series [1] (setting [3]) was 5.82. In addition, the pIC50 in series [2] was 6.03.

Take `CC(C)C[C@H](NC(=O)N1CCCCCC1)C(=O)N1CCN(C(c2ccccc2)c2ccccc2)CC1` [Example 48, (S)-Azepane-1-carboxylic acid [1-(4-benzhydryl-piperazine-1-carbonyl)-3-methyl-butyl]-amide]: the melting point was 66 to 74 °C. Moreover, in series [1] (setting [3]), the pIC50 is 5.92. Besides, in series [2], the pIC50 was 5.77.

For the compound `CC(C)C[C@H](NC(=O)OC(C)(C)C)C(=O)N1CCN(C(c2ccc(F)cc2)c2ccc(F)cc2)CC1` [Example 50, (S)-(1-{4-[Bis-(4-fluoro-phenyl)-methyl]-piperazine-1-carbonyl}-3-methyl-butyl)-carbamic acid tert-butyl ester], the melting point was 59 to 66 °C. The pIC50 in series [1] (setting [3]) is 6.26. The negative-log IC50 (pIC50) in series [2] is 6.02.

`CC(C)(C)OC(=O)N[C@@H](Cc1ccccc1)C(=O)N1CCN(C(c2ccc(F)cc2)c2ccc(F)cc2)CC1` [Example 51, (S)-(1-Benzyl-2-{4-[bis-(4-fluoro-phenyl)-methyl]-piperazin-1-yl}-2-oxo-ethyl)-carbamic acid tert-butyl ester] showed a melting point of 54 to 74 °C. The pIC50 in series [1] (setting [3]) is 6.60. Moreover, the negative-log IC50 (pIC50) in series [2] is 6.15.

`CC(C)C[C@H](N)C(=O)N1CCN(C(c2ccc(F)cc2)c2ccc(F)cc2)CC1` [Example 53, (S)-2-Amino-1-{4-[bis-(4-fluoro-phenyl)-methyl]-piperazin-1-yl}-4-methyl-pentan-1-one] gave a melting point of 61 to 68 °C. Moreover, in series [1], the inhibition at 1 µM was 22% and the inhibition at 10 µM amounted to 78%. Also, the pIC50 in series [2] was 6.38.

`CC(C)N[C@@H](Cc1ccccc1)C(=O)N1CCN(C(c2ccc(F)cc2)c2ccc(F)cc2)CC1` [Example 54, (S)-1-{4-[Bis-(4-fluoro-phenyl)-methyl]-piperazin-1-yl}-2-isopropylamino-3-phenyl-propan-1-one] registered a melting point of 45 to 58 °C. In series [1], the inhibition at 1 µM was found to be 25% and the inhibition at 10 µM came out at 99%. In addition, in series [2], the pIC50 is 5.89.

The compound `CC(C)CCN[C@@H](Cc1ccccc1)C(=O)N1CCN(C(c2ccc(F)cc2)c2ccc(F)cc2)CC1.Cl` [Example 55, (S)-1-{4-[Bis-(4-fluoro-phenyl)-methyl]-piperazin-1-yl}-2-(3-methyl-butylamino)-3-phenyl-propan-1-one dihydrochloride] registered a melting point of 172 to 186 °C. Further, in series [1], the inhibition at 10 µM was 104%. In addition, in series [2], the negative-log IC50 (pIC50) was 6.03.

In turn, `CC(C)CCN(CCC(C)C)[C@@H](Cc1ccccc1)C(=O)N1CCN(C(c2ccc(F)cc2)c2ccc(F)cc2)CC1.Cl` [Example 56, (S)-1-{4-[Bis-(4-fluoro-phenyl)-methyl]-piperazin-1-yl}-2-[bis-(3-methyl-butyl)-amino]-3-phenyl-propan-1-one dihydrochloride] gave a melting point of 139 to 181 °C. In series [1], the inhibition at 1 µM came to 16% and the inhibition at 10 µM turned out to be 37%. For the same compound, the pIC50 in series [2] was < 5.52.

`CC(C)C[C@@H](C(=O)N1CCN(C(c2ccc(F)cc2)c2ccc(F)cc2)CC1)N(Cc1ccc(OC(C)(C)C)cc1)Cc1ccc(OC(C)(C)C)cc1` [Example 57, (S)-2-[Bis-(4-tert-butoxy-benzyl)-amino]-1-{4-[bis-(4-fluoro-phenyl)-methyl]-piperazin-1-yl}-4-methyl-pentan-1-one] gave a melting point of 62 to 67 °C. In series [1], the inhibition at 10 µM was determined as 7%. Further, the pIC50 in series [2] is < 5.52.

`CC(C)C[C@@H](C(=O)N1CCN(C(c2ccc(F)cc2)c2ccc(F)cc2)CC1)N(Cc1ccc(C(C)(C)C)cc1)Cc1ccc(C(C)(C)C)cc1` [Example 59, (S)-2-[Bis-(4-tert-butyl-benzyl)-amino]-1-{-4-[bis-(4-fluoro-phenyl)-methyl]-piperazin-1-yl}-4-methyl-pentan-1-one] returned a melting point of 78 to 86 °C. In series [1], the inhibition at 1 µM is -5% and the inhibition at 10 µM amounted to 2%. Besides, in series [2], the negative logarithm of the IC50 (pIC50) was < 5.52.

In turn, `COc1cc(CN[C@@H](CC(C)C)C(=O)N2CCN(C(c3ccc(F)cc3)c3ccc(F)cc3)CC2)cc(OC)c1OC` [Example 60, (S)-1-{4-[Bis-(4-fluoro-phenyl)-methyl]-piperazin-1-yl}-4-methyl-2-(3,4,5-trimethoxy-benzylamino)-pentan-1-one] registered a melting point of 58 to 62 °C. In series [1], the inhibition at 1 µM was 26% and the inhibition at 10 µM was 95%. Besides, the pIC50 in series [2] is 6.66.

The compound `O=C([C@H](Cc1ccccc1)NC1CCCCC1)N1CCN(C(c2ccc(F)cc2)c2ccc(F)cc2)CC1` [Example 61, (S)-1-{4-[Bis-(4-fluoro-phenyl)-methyl]-piperazin-1-yl}-2-cyclohexylamino-3-phenyl-propan-1-one] showed a melting point of 60 to 64 °C. Moreover, in series [1], the inhibition at 1 µM worked out at 42% and the inhibition at 10 µM was determined as 102%. Also, in series [2], the pIC50 was 5.77.
